Tests used:
[1] = system: collagenase I promoter; experiment: Experiment 1: collagenase I promoter (-73/+63)-luciferase in CV1 cells, no receptor plasmid (Empty); type: cell-based, African Green Monkey; settings: for Raw counts (Empty) / % control (Empty): no receptor; for % control (Empty): Blank = 100
Excerpt: Two plasmid constructs were introduced by standard calcium phosphate precipitation of DNA followed by glycerol shock (Ausubel F M, Brent R, Kingston D D, Moore J G et al Current protocols in molecular biology 1994 Greene Publishing Associates/Wiley-Interscience, New York, N.Y.) using a transformed African Green Monkey kidney cell line (CV1) (Schneikert J, Peterziel H, Defossez P-A, Klocker H, de Launoit Y and Cato A C B Androgen receptor-Ets protein interaction is a novel mechanism for steroid hormone-mediated down-modulation of matrix metalloproteinase expression, Journal of Biological Chemistry. Vol 271(39) (pp 23907-23913), 1996).
Accordingly, the following two plasmids were included into CV1 cells described above — • (a) Either of GR1 or pSG5ARF containing glucocorticoid or androgen receptor (AR) respectively, both at 2 ug per 5×10^5 cells, driven by the Rous sarcoma virus promoter, and • (b) a plasmid containing the −73/+63 portion of the collagenase I promoter linked to luciferase gene at 8 ug per 5×10^5 cells.
CPII was compound II above, clobuzarit.

[2] = system: collagenase (MMP-1) promoter; experiment: Experiment 4.1: collagenase (MMP-1) promoter (-517/+63)-luciferase in MCF-7 cells, endogenous thyroid hormone receptors; type: cell-based, human; settings: MCF-7, endogenous thyroid hormone receptors; for % Control: Blank = 100
Method: (§1) These experiments were intended to identify the receptor through which compounds I might be acting to block collagenase promoter activity.
(§2) Transfection procedure hereinbefore described with CV1 cells was repeated using MCF-7 mammary breast cancer cells derived from pleural effusion from a breast cancer patient. Additionally, each experiment included transfection of a plasmid (at 8 ug per 5×10^5 cells) containing the −517/+63 section of the collagenase (MMP-1) promoter linked to the luciferase gene. TPA was used as above to stimulate activity of the collagenase promoter resulting in luciferase production. Compound II or 3,3,5-triiodo-L-thyronine (T3) was included (both at 10^−8M), the latter being a known ligand for the thyroid hormone receptor.
Experiment 4.1. As MCF-7 cells express endogenous thyroid hormone receptors, only the collagenase promoter plasmid (at 8 ug per 5×10^5 cells) was transfected into the MCF-7 cells.

[3] = system: collagenase (MMP-1) promoter; experiment: Experiment 4.2: collagenase (MMP-1) promoter-luciferase in MCF-7 cells with antisense construct for the thyroid receptor; type: cell-based, human; settings: MCF-7 + thyroid receptor antisense; for % Control: Blank = 100
Method: as §1, §2
Experiment 4.2. The procedure of Experiment 4.1 was repeated except that a second plasmid, containing 662 bp antisense construct for the thyroid receptor (at 8 ug per 5×10^5 cells) was additionally transfected.

[4] = system: c-jun; experiment: Experiment 5: immunoblot of phosphorylated (serine 73) c-jun in rheumatoid fibroblasts; type: cell-based, human; settings: 36 hours, 10 ng/ml TPA plus 5×10^-7M substance, compared to TPA alone (lane 1)
Method: (§3) Rheumatoid fibroblasts were cultured from synovium obtained from the knee joint of a patient with rheumatoid arthritis. Cells were cultured in monolayer with DMEM tissue culture medium (Gibco) with the inclusion of 5% v/v charcoal stripped serum in 75 cm^2 flasks. The cells were treated for 36 hours with the addition of 10 ng/ml TPA (phorbol ester) plus 5×10^−7M thyroid hormone, Compound II or Compound III. TPA and drugs were added at time zero and at 30 hours, the TPA addition ensured phosphorylation of c-jun.
(§4) After 36 hours, cells were lysed in phosphate buffered saline (PBS) containing protease inhibitors and 0.1% Triton-X-100, and then boiled for 5 minutes in non-reducing gel loading buffer. Samples of cell lysate corresponding to equal cell number were loaded onto a 12.5% SDS polyacrylamide gel, and electrophoresis using a Bio-Rad™, (Bio-Rad Laboratories, California USA) Mini Protean II cell was performed at approximately 100V for one hour.
(§5) Transfer of proteins to nitrocellulose membrane was performed using a Bio-Rad Mini Trans-Blot transfer cell.
(§6) Immunoblotting was performed using polyclonal rabbit anti-human phosphorylation specific (set 73) c-jun (cat. No 06659, Upstate Biotechnology), or MMP-1 (cat. No. RDI-MMP1Habr, Research Diagnostics) antibodies diluted 1:1000 in Tris buffered saline+3% fat free milk powder. […]

[5] = system: pro-MMP-1; experiment: Experiment 5: immunoblot of pro-MMP-1 in rheumatoid fibroblasts; type: cell-based, human; settings: 36 hours, 10 ng/ml TPA plus 5×10^-7M substance, compared to TPA alone (lane 5)
Method: as §3, §4, §5, §6

[6] = substance added with TPA 75 ng/ml
[7] = substance 10^-8M added with TPA
[8] = substance added alone, CPII 10^-8M

CC(C)(OCc1ccc(-c2ccc(Cl)cc2)cc1)C(=O)O [Compound II, 1-[4-(4-chlorophenyl)benzyloxy]-1-methylpropionic acid]
collagenase I (MMP) promoter activity in the absence of either receptor, in words ([1]; TPA stimulated and unstimulated, Empty): able to reduce the level
Raw counts (Empty) ([1]; luciferase, substance added alone, TPA 75 ng/ml): 1882 counts
% control (Empty) ([1]; substance added alone): 78%
Raw counts (Empty) [1, 6]: 2747 counts
% control (Empty) [1, 6]: 115%
effect on TPA stimulation of luciferase production, in words [2]: able further to enhance TPA stimulation of luciferase production
Raw Counts [2, 7]: 352376 counts
% Control [2, 7]: 2802.2%
% Control ([2]; substance added alone): 47.9%
Raw Counts [2, 8]: 6029 counts
luciferase production when thyroid hormone receptor synthesis is inhibited, in words [3]: substantially prevented
Raw Counts [3, 7]: 8716 counts
% Control [3, 7]: 597.8%
% Control ([3]; substance added alone): 163.2%
Raw Counts [3, 8]: 2379 counts
amount of phosphorylation of c-jun (serine 73), band intensity [4]: lower intensity
amount of pro-MMP-1, band intensity [5]: lower intensity
